Experimental data: patent US20160289640A1, “MTOR/STAT3 SIGNAL INHIBITOR-TREATED MESENCHYMAL STEM CELL HAVING IMMUNOMODULATORY ACTIVITY, AND CELL THERAPY COMPOSITION COMPRISING SAME, FOR PREVENTING OR TREATING IMMUNE DISORDERS” (THE CATHOLIC UNIVERSITY OF KOREA INDUSTRY-ACADEMIC …, priority 2013, published 2016)
“Also recorded” adds a separate entry of the source.

Experiments:
[1] = test system: adipose tissue-derived mesenchymal stem cells; test: Cell migration kit analysis (upper/lower chamber, polycarbonate membrane); type: cell-based, human
Description: For the confirmation of cell migration of the mesenchymal stem cells treated with rapamycin (10 ng/mL), the cells were analyzed using a cell migration kit (Chemicon, Temecula, Calif.). That is, a group with CD4+T cells alone, a group treated with CD4+T cells and rapamycin (10 ng/mL), and a group treated with SDF-1 cells and CD4+T cells were added into the lower chamber, respectively, and the mesenchymal stem cells were added into the upper chamber. Then, for the migration of the adipose tissue-derived mesenchymal stem cells added into the upper chamber into the lower chamber, the cells passed through a polycarbonate membrane were stained and their number was observed by counting.

[2] = test system: mesenchymal stem cells derived from human adipose tissues; test: Formation of autophagic vacuoles observed under electron microscope; type: cell-based; details: 50 μM rapamycin
Description: Meanwhile, autophagy has the effects capable of controlling the beneficial or harmful effects of immunity and inflammation, and preventing autoimmunity and inflammatory diseases, and thus the rapamycin-treated mesenchymal stem cells of the present invention, due to their autophagy, can be more effectively used for the immunity and treatment of inflammatory diseases. As such, the present inventors treated the mesenchymal stem cells with 50 μM rapamycin and the degree of formation of autophagic vacuoles was observed under electron microscope.

[3] = test system: mTOR signaling pathway in human adipose tissue-derived mesenchymal stem cells; test: Western blot analysis of mTOR signaling pathway and autophagy proteins; type: cell-based
Description: The present inventors, in furtherance with the result of <6-1>, performed western blot analysis to examine whether mTOR signaling pathway can be controlled by rapamycin, in the rapamycin-treated mesenchymal stem cells. For this purpose, human adipose tissue-derived mesenchymal stem cells were treated with 10 ng/mL rapamycin, and 1 hour later, the cells were lysed and proteins were extracted therefrom. Then, the extracted proteins were subjected to SDS-PAGE electrophoresis, electrically transferred to a nitrocellulose membrane, blocked with 5% skim milk for 1 hour, reacted by attaching primary antibodies to Beclin1, ATG5, ATG7, LC3I, LC3II, Phospho-mTOR, mTOR, Rictor, and Ractor, and then reacted by attaching secondary antibodies thereto, and photosensitized into Kodak X-ray using the Enhanced Chemiluminescence (ECL), and the expression levels of the proteins of these genes were analyzed (FIG. 6c).

[4] = test system: adipose tissue-derived mesenchymal stem cell; test: Real-time PCR of cell migration markers; type: cell-based, human; details: 50 nM rapamycin, vs group not treated
Description: In order to confirm whether adipose tissue-derived mesenchymal stem cell treated with 50 nM rapamycin can migrate into a lesion area due to their cell migration capability, the present inventors analyzed the expression levels of CCR1, CCR2, CCR3, CCR4, CCR7, CCR9, and CXCR4, which are factors associated with the migration of mesenchymal stem cells, via real-time PCR.

[5] = test system: adipose tissue-derived mesenchymal stem cells; test: Real-time PCR of autophagy factor markers; type: cell-based, human; details: 10 ng/mL rapamycin, 12 hours, vs group not treated
Description: The adipose tissue-derived mesenchymal stem cells isolated and cultured in Example 1 were treated with 10 ng/mL rapamycin, and 12 hours later, the cells were collected and the total RNA was obtained therefrom. Then, cDNA Synthesis Kit (Roche, Transcriptor First Strand cDNA Synthesis Kit) was prepared based on the RNA. Then, the expression levels of ATG5, LC3A, and LC3B genes, which are autophagy factor markers, were analyzed via real-time PCR using the thus-synthesized cDNA.

mesenchymal stem cells [6] = test: Flow cytometry of cell phenotype CD markers in rapamycin-treated mesenchymal stem cells; type: cell-based
Description: The mesenchymal stem cells isolated and cultured in <Example 1> were treated with rapamycin, respectively, and the phenotypes of the mesenchymal stem cells were analyzed. In particular, the mesenchymal stem cells not treated with rapamycin were used as a control, and the expression level of cell markers in the rapamycin-treated mesenchymal stem cells were analyzed via flow cytometry.

[7] = test system: mesenchymal stem cells derived from human adipose tissue; test: Fluorescence microscope analysis of IL-10 and IDO expression in rapamycin-treated mesenchymal stem cells; type: cell-based; details: FIG. 1b
mesenchymal stem cells [8] = test: Real time PCR of genes associated with immunomodulatory activity in rapamycin-treated mesenchymal stem cells; type: cell-based, human
Description: (§1) The mesenchymal stem cells isolated and cultured in <Example 1> were treated with rapamycin, respectively, and the changes in the expression of IDO, IL-10, and TGF-β, which are genes associated with immunomodulatory activity. First, in a condition of 60 mm dish, for the adipose tissue-derived mesenchymal stem cells, the mesenchymal stem cells in the amount of 5 ? 10^5 cells which were treated with 100 nM rapamycin and cultured at 37° C. were used. In particular, the mesenchymal stem cells not treated with rapamycin were used as a control, and the expression level of the genes having immunomodulatory activity in rapamycin-treated mesenchymal stem cells was analyzed using a real time PCR method.

[9] = test system: adipose tissue-derived mesenchymal stem cells; test: Real time PCR of inflammatory factors and tumor factors in rapamycin-treated mesenchymal stem cells; type: cell-based; details: 100 nM rapamycin, vs group not treated
Description: as §1, with “High-mobility group protein B1 (HMGB-1), IL-6,” for “IDO, IL-10,”, “IL-1β,” for “TGF-β,”, “inflammatory factors and tumor factors.” for “immunomodulatory activity.”

[10] = 10 ng/mL rapamycin, 1 hour, western blot
[11] = 100 nM rapamycin, 5x10^5 cells, 37° C., real time PCR, vs group not treated

CO/C1=C\C(C)=C\[C@@H](C)[C@@H](O)[C@@H](C)C/C(C)=C/C=C/[C@H](OC)[C@@H]([C@@H](C)[C@@H](O)[C@H](C)[C@@]2(O)C[C@@H](O)[C@H](C)[C@@H](C(C)C)O2)OC1=O [bafilomycin]
cell migration capability of the rapamycin-treated mesenchymal stem cells ([1]; after treatment with bafilomycin): reduced

CO[C@H]1C[C@@H]2CC[C@@H](C)[C@@](O)(O2)C(=O)C(=O)N2CCCC[C@H]2C(=O)O[C@H]([C@H](C)C[C@@H]2CC[C@@H](O)[C@H](OC)C2)CC(=O)[C@H](C)/C=C(\C)[C@@H](O)[C@@H](OC)C(=O)[C@H](C)C[C@H](C)/C=C/C=C/C=C/1C [rapamycin, (3S,6R,7E,9R,10R,12R,14S,15E,17E,19E,21S,23S,26R,27R,34aS)-9,10,12,13,14,21,22,23,24,25,26,27,32,33,34,34a-hexadecahydro-9,27-dihydroxy-3-[(1R)-2-[(1S,3R,4R)-4-hydroxy-3-methoxycyclohexyl]-1-methylethyl]-10,21-dimethoxy-6,8,12,14,20,26-hexamethyl-23,27-epoxy-3H-pyrido [2,1-c][1,4]-oxaazacyclohentriacontine-1,5,11,28,29 (4H,6H,31H)-pentone]
number of autophagic vacuoles [2]: increase | expression level of ATG5 protein [3, 10]: increase | expression level of ATG7 protein [3, 10]: increase | expression level of Beclin1 protein [3, 10]: increase | expression level of LC3I protein [3, 10]: increase | expression level of LC3II protein [3, 10]: increase | mTOR activation (phosphorylation) [3, 10]: inhibited; also recorded: reduced | expression of Ractor ([3]; rapamycin treatment): decreased | expression of Rictor ([3]; rapamycin treatment): decreased | increase in the expression of CCR1 [4]: ~115 fold | increase in the expression of CCR2 [4]: ~25 fold | increase in the expression of CCR3 [4]: ~70 fold | increase in the expression of CCR4 [4]: ~32 fold | increase in the expression of CCR7 [4]: ~200 fold | increase in the expression of CCR9 [4]: ~150 fold | increase in the expression of CXCR4 [4]: ~60 fold | expression level of ATG5 gene [5]: significant increase | expression level of LC3A gene [5]: significant increase | expression level of LC3B gene [5]: significant increase | expression of CD45 (negative marker) (mesenchymal stem cells [6]): negative | expression of HLA-DR (negative marker) (mesenchymal stem cells [6]): negative | migration of mesenchymal stem cells ([1]; CD4+T cells and rapamycin (10 ng/mL), vs mesenchymal stem cells not treated with anything): greater migration | expression level of IL-10 cytokine [7]: significantly increased | increase in the expression of IDO (mesenchymal stem cells [8]; [11]): ~5 fold | increase in the expression of IL-10 (mesenchymal stem cells [8]; [11]): ~5 fold | increase in the expression of TGF-β (mesenchymal stem cells [8]; [11]): ~5 fold | increase in TGF-β expression (mesenchymal stem cells [8]; rapamycin-treated mesenchymal stem cells derived from adipose tissue vs not treated with rapamycin): ~30 fold | expression of HMGB-1 [9]: significant decrease | expression of IL-1β [9]: significant decrease | expression of IL-6 [9]: significant decrease
